Measured values taken from article PMC8486872, “A rational blueprint for the design of chemically-controlled protein switches” (Nature Communications, 2021).
Where “and” joins values, the source holds several entries; their conditions need not be identical. Equal entries are not always repeated.

System: SEAP and Luciferase expression in HEK293T cells
Assay: SIMO designer cells (AIR-1/2-GEMS + CDH-1/2-TF)
Assay type: cell-based
Parameters: Bottom (best-fit value) / Top (best-fit value) / Span (best-fit value): unit not given here
Details: for logIC50 (best-fit value): drug in nM
From the text: Fig. 5 Orthogonal chemical switches enable implementation of multi-input multi-output control modes in mammalian cells. a Scheme of multi-inputs multi-outputs (MIMO) designer cells where two drugs control two different outputs. b, c Cells were co-transfected with AIR-1/2-GEMS and CDH-3-TF regulate SEAP and Luciferase expression, respectively. […] AIR-1/2-GEMS coupled with SEAP expression circuits were co-transfected with CDH-1/2-TF circuits which control the Luciferase production. Respective drug concentrations ranged from 0.001 nM to 1 µM. All values presented are mean ± s.d. of three replicates and curves were fitted by four-parameters nonlinear regression. b, c, e, f, h, i Source data are available in the source data file.
Finally, we engineered SIMO cells (Fig. 5g) using two designed switches that produce ON and OFF responses upon exposure to the same drug. We transfected cells with combinations of AIR-GEMS and CDH-TFs which controlled the expression of the reporter proteins SEAP and Luciferase, respectively. […] Therefore, computational design expanded the repertoire of protein switches controlled by the same compounds that can be used to simultaneous turn ON and OFF synergistic outputs. […]
AIR-1-GEMS coupled with SEAP expression circuits (i) and CDH-1-TF circuits which control the Luciferase production (j). j-k) Quantification of SEAP and Luciferase activities under Drug-2. AIR-2-GEMS coupled with SEAP expression circuits (k) and CDH-2-TF circuits which control the Luciferase production (l). b-k) Each data point represents the mean of n = 3 biological replicates, and the dose-dependent curve were fitted using four-parameter nonlinear regression.

[1] = Fig S13i, CDH-1-TF control Luciferase expression only, Drug-1 0.01 nM
[2] = Fig S13i, CDH-1-TF control Luciferase expression only, Drug-1 10 nM
[3] = Fig S13i, CDH-1-TF control Luciferase expression only, Drug-1 31.6 nM
[4] = Fig S13i, CDH-1-TF control Luciferase expression only, Drug-1 100 nM
[5] = Fig S13i, CDH-1-TF control Luciferase expression only, Drug-1 316 nM
[6] = Fig S13h, AIR-1-GEMS control SEAP expression only, Drug-1 0.01 nM
[7] = Fig S13h, AIR-1-GEMS control SEAP expression only, Drug-1 0.1 nM
[8] = Fig S13h, AIR-1-GEMS control SEAP expression only, Drug-1 1 nM
[9] = Fig S13h, AIR-1-GEMS control SEAP expression only, Drug-1 316 nM
[10] = sheet Figure5h, Luciferase, four-parameter fit
[11] = sheet Figure5h, SEAP, four-parameter fit

In the case of CN(C)CC#Cc1ccc(OCCCc2sc(N3CCc4cccc(C(=O)Nc5nc6ccccc6s5)c4C3)nc2C(=O)O)c(F)c1 [Drug-1, A-1155463], the Luciferase (Fig5h, via CDH-1-TF, 0.5 nM) is reported as 10957 and 11915 and 9777, the Luciferase (Fig5h, via CDH-1-TF, 1 nM) is reported as 11394 and 11027 and 9891 and the Luciferase (Fig5h, via CDH-1-TF, 5 nM) is reported as 9387 and 10202 and 8501. For the same compound, the Luciferase (Fig5h, via CDH-1-TF, 10 nM) was 9897 and 9353 and 8698, the Luciferase (Fig5h, via CDH-1-TF, 50 nM) was 8493 and 5450 and 4767 and the Luciferase (Fig5h, via CDH-1-TF, 100 nM) was 6159 and 4105 and 3304. The Luciferase (Fig5h, via CDH-1-TF, 500 nM) was 6685 and 4541 and 3781, the Luciferase [1] was 4.631 RLU and 4.974 RLU and 6.289 RLU and the SEAP [1] was 47563 U/L and 58731 U/L and 59991 U/L. For the same compound, the SEAP (Fig S13i, CDH-1-TF control Luciferase expression only, Drug-1 0.1 nM) was 53899 U/L and 50028 U/L and 61321 U/L, the SEAP (Fig S13i, CDH-1-TF control Luciferase expression only, Drug-1 1 nM) was 51520 U/L and 52067 U/L and 58888 U/L and the SEAP (Fig S13i, CDH-1-TF control Luciferase expression only, Drug-1 3.16 nM) was 43654 U/L and 44498 U/L and 55865 U/L. The Luciferase [2] was 5.35 RLU and 3.637 RLU and 4.7853 RLU, the SEAP [2] was 47243 U/L and 36047 U/L and 43911 U/L and the Luciferase [3] was 10.558 RLU and 9.125 RLU and 9.89 RLU. For the same compound, the SEAP [3] was 41739 U/L and 35234 U/L and 36053 U/L, the Luciferase [4] was 6.8735 RLU and 7.9639 RLU and 7.26 RLU and the SEAP [4] was 32885 U/L and 32749 U/L and 33680 U/L. For the same compound, the Luciferase [5] was 7.503 RLU and 9.5502 RLU and 5.763 RLU, the SEAP [5] was 36324 U/L and 29686 U/L and 32588 U/L and the SEAP (Fig S13i, CDH-1-TF control Luciferase expression only, Drug-1 1000 nM) was 22215 U/L and 22717 U/L and 21612 U/L. The Luciferase [6] was 7.197 RLU and 7.213 RLU and 7.2493 RLU, the SEAP [6] was 251 U/L and 231 U/L and 325 U/L and the Luciferase [7] was 7.338 RLU and 6.8 RLU and 5.088 RLU. For the same compound, the SEAP [7] was 201 U/L and 203 U/L and 381 U/L, the Luciferase [8] was 9.026 RLU and 10.0168 RLU and the SEAP [8] was 267 U/L and 249 U/L and 441 U/L. The SEAP (Fig S13h, AIR-1-GEMS control SEAP expression only, Drug-1 3.16 nM) was 363 U/L and 301 U/L and 409 U/L, the SEAP (Fig S13h, AIR-1-GEMS control SEAP expression only, Drug-1 10 nM) was 551 U/L and 601 U/L and the SEAP (Fig S13h, AIR-1-GEMS control SEAP expression only, Drug-1 31.6 nM) was 639 U/L and 579 U/L and 471 U/L. The SEAP (Fig S13h, AIR-1-GEMS control SEAP expression only, Drug-1 100 nM) was 421 U/L and 435 U/L and 441 U/L, the Luciferase [9] was 232.378 RLU and 215.546 RLU and 184.304 RLU and the SEAP [9] was 301 U/L and 339 U/L and 443 U/L. The Luciferase (Fig S13h, AIR-1-GEMS control SEAP expression only, Drug-1 1000 nM) was 239.146 RLU and 224.11 RLU and 201.76 RLU, the “Bottom (best-fit value)” value [10] was 1591 and the “HillSlope (best-fit value)” value [10] was -0.5534. The “Span (best-fit value)” value [10] was 8125, the “Top (best-fit value)” value [10] was 9717 and the “logIC50 (best-fit value)” value [10] was 1.252. For the same compound, the IC50 (sheet Figure5h, Luciferase, four-parameter fit, read-out: IC50 (best-fit value)) was 17.9 nM, the “Bottom (best-fit value)” value [11] was 10.72 and the “HillSlope (best-fit value)” value [11] was 0.8045. The “Span (best-fit value)” value [11] was 94.16, the “Top (best-fit value)” value [11] was 104.9 and the “logIC50 (best-fit value)” value [11] was 1.797.
